Assays:
Format in all cases: cell-based
[1] = test system: human iPS-derived cardiomyocytes (hiPS-CM); assay: LDH release in hiPS-CM; conditions: maximal available concentration
Method: (§1) As contrast to activity, toxicity of top six similars and lead compounds was determined by a multiplex measurement of caspase activation and membrane integrity (using LDH release and inclusion of the CellTox Green dye). Briefly, HCFs were seeded as before. After 24 h, cells were treated with serial dilutions of compounds with additional 0.1% CellTox™ Green dye (Promega, #G8741). After 24 h incubation, 5 µL medium was removed from each well, mixed with 95 µL LDH Storage buffer (Promega, #J2380) and frozen for later analysis. 95 µL Caspase-Glo® 3/7 reagent (Promega, #G8090) was added to each well, and after 60 min of incubation luminescence was measured in a Synergy HT. Afterwards, micrographs of brightfield and green fluorescence were taken using a Cytation 1 (BioTek) automated microscope maintaining 37 °C and 5% CO2. Wells were manually checked for co-localization of fluorescence signal with cells in brightfield. On the next day, supernatants in LDH Storage buffer were thawed, and 50 µL was mixed with 50 µL of LDH Detection reagent and luminescence was measured after 60 min of incubation. Dose–response curves were determined as described before. To determine toxicity of the top 3 anti-fibrotic similars in hiPS-CM, 20,000 cells/well were seeded, treated and analysed as above, devoid the fluorescent dye steps.

[2] = test system: human iPS-derived cardiomyocytes (hiPS-CM); assay: Caspase-3/7 activation in hiPS-CM; conditions: maximal available concentration
Method: as §1

[3] = test system: human cardiac fibroblasts (HCF); assay: BrdU incorporation, HCF proliferation (first screen)
Method: 96-well plates (TPP) were coated with 0.1% gelatine and seeded with 7500 HCFs/well. After 72 h, medium was exchanged with serial dilutions of compounds in FGM-3 + 1.6% DMSO + 1% 5-bromo-2′-deoxyuridine (BrdU, Roche, #11647229001), prepared in additional plates. After 24 h, cells were washed twice with DPBS (Gibco, #14190144) before incubation with anti-BrdU:POD (Roche, #11647229001) for 60 min (RT). Readout was performed by measurement of absorbance at 370 nm + 490 nm in a Synergy HT (BioTek) microplate reader. […] As validation, HCF were seeded as before, but treated with serial dilutions of compounds after 24 h. […] After 60 min of incubation (37 °C, in the dark), absorbance at 450 nm + 630 nm was measured maintaining 37 °C and analysed as described before.
To assess screening quality, quality acceptance criteria Z′ (Z prime), SW (signal window), S:B (signal-to-background), S:N (signal-to-noise) were determined following. Average Z′ ≥ 0.5 and SW ≥ 2 were required to accept the screening overall, whereas single plates were rejected from analysis if Z′ < 0.3 or SW < 1.

[4] = test system: human living myocardial slices; assay: Ex vivo human living myocardial slices, qPCR gene expression; conditions: 48 h
Excerpt: Myocardial slices were generated from human left ventricular heart specimens taken from failing hearts at the time of transplantation. Tissue was obtained from the Clinic for Cardiac, Thoracic, Transplant and Vascular Surgery at the Hannover Medical School (MHH), Hannover, Germany. Patients provided informed consent to the scientific use of the explanted tissue.
The preparation and culture of myocardial slices has been described before. Briefly, human heart specimens were sliced into 300 µm thick slices using a vibrating microtome (Campden Instruments, #7000smz-2) while in ice-cold 30 mM 2,3-butanedione monoxime + 1 mM D-glucose + 10 mM HEPES + 6 mM KCl + 140 mM NaCl + 1 mM MgCl2 + 1.8 mM CaCl2 (cardioplegic Tyrode’s solution), before being trimmed into approx. 7 × 7 mm pieces of aligned muscle fibres.
After 48 h in culture, myocardial slices were frozen in liquid nitrogen and stored at −80 °C for further gene expression analysis.
(§2) A mix of forward and reverse primer pairs (10 µM, Eurofins) or 10 × Quantitect Primer Assay (Qiagen, #249900) was used for mRNA. To measure miRNA, RNA was reverse-transcribed using the miRNA TaqMan MicroRNA Reverse Transcription Kit (Applied Biosystems, #4366597) with specific miRNA RT primers (ThermoFisher, #4427975). cDNA was diluted 1:3 with dH2O before qPCR with Absolute Blue qPCR Mix (Abgene, #AB-4136/B) and the specific Taqman probes (ThermoFisher, #4427975). Runs were performed in ViiA7 (Applied Biosystems) or QuantStudio 7 Flex (Applied Biosystems). Real-time qPCR data were analysed as described elsewhere.

[5] = test system: human cardiac fibroblasts (HCF); assay: In vitro migration (scratch) assay of HCF; conditions: 10 × EC50
Method: To assess migrative capabilities of HCF, cells were stained with 1:1000 1,1′-Dioctadecyl-3,3,3′,3′-Tetramethylindotricarbocyanine Iodide (DIR′) dye in FGM-3 for 20 min at 37 °C. Cells were washed with DPBS and seeded into 0.1% gelatine-coated 96-well plates at 30,000 cells per well. […] After 17 h and 24 h, plates were imaged again. Rate of migration was determined using the migrative index (MI).

[6] = test system: human cardiac fibroblasts (HCF); assay: TaqMan Array Human MicroRNA Cards, miRNA deregulation in HCF
Method: PCR amplification of array cards was performed as instructed. After quality control of all real-time qPCRs, cT values were exported and all runs were merged into a single excel file. Recommended baseline correction using relative thresholds to correct for varying reconstitution rates of different Taqman probes was not performed. Low-expressed miRNAs with cT > 32 in more than 1 replicate per treatment were excluded from analysis, before samples were normalized to column mean. Multiple unpaired t tests were performed using GraphPad Prism, deregulations were accepted as discoveries if FDR ≤ 1% (using BKY adjustment). As miRNA identifiers were based on miRbase v14, we converted them to the latest v22 for further analysis using miRBaseConverter. 747 sequences could be converted correctly, while the remaining miRNAs were removed from miRbase due to incorrect annotation (e.g. the sequences of hsa-miR-886-3p and hsa-miR-886-5p are part of VTRNA2-1 [44]) or no evidence of human expression.

[7] = test system: human cardiac fibroblasts (HCF); assay: miRNA mimic / inhibitor transfection before compound treatment, WST-1 readout
Method: as §2
To determine whether these miRNAs are part of and essential to the mechanism of action of the compounds, we transfected HCF with miR mimics or inhibitors of the miRNA candidates prior to compound treatment. If a miRNA is essential for the compounds’ mechanism, we would expect the absence of anti-proliferative effects after inhibition of this miRNA, whereas anti-proliferative effects would remain if the miRNA is rather a downstream element of the compound response.

[8] = test system: human cardiac fibroblasts (HCF); assay: nCounter Fibrosis Panel mRNA profiling of HCF; conditions: 24 h treatment
Method: Briefly, 100 ng/5µL isolated total RNA of HCF after 24 h treatment (RIN > 7.5 and […] > 88%) was mixed with the hybridization Master Mix and incubated at 65 °C for 20 h before loading on a nCounter® FLEX (Department of Pathology, Hannover Medical School, Germany). All run files (.RCC) were compiled into a single experiment using the nSolver analysis software. […] Reference genes for normalization were determined by nSolver using all samples (ACAD9, ARMH3, CNOT10, GUSB, MTMR14, NOL7, NUBP1, PGK1, PPIA, RPLP0, see supplemental Fig. 4e, f). We then used the Advanced analysis plugin (v2.0.115) including LOT as confounder variable and BY adjusted p value < 0.05 for identification of central deregulated pathways. Additionally, normalized counts were further analysed with GraphPad Prism using multiple unpaired t tests with FDR ≤ 5% after BKY adjustment and log2 |FC| ≥ 1.

[9] = test system: human cardiac fibroblasts (HCF); assay: Global RNA sequencing of treated HCF
Excerpt: The NEBNext Ultra II Directional RNA Kit was used to prepare the samples (the same as for the nCounter® Fibrosis Panel, see above) for subsequent deep sequencing on a NovaSeq PE50 (Illumina) at HZI Braunschweig (Germany). Reads were trimmed and mapped to the human genome hg38.79 using RNA STAR (v2.4.2a, [11]) by HZI Braunschweig. RAW read counts were further analysed on Galaxy (v3.38.3, usegalaxy.org, [2]) using the limma-voom method. Low-expressed transcripts without more than 0.25 CPM (counts per million reads mapped) in at least 3 samples (42,079 of 61,043) were filtered out, and TMM (trimmed mean of M values) was the method used to normalise library sizes. Changes in transcript expression were considered significant if FDR [4] ≤ 0.05 and log2 |FC| ≥ 1.3.

[10] = mean of DMSO minus mean of treatment

| Structure (SMILES) | LDH release [1] | Caspase-3/7 activation [2] | inhibitory activity on HCF proliferation ([3]; BrdU incorporation) | EC50 fold lower than the EC50 of lycorine ([3]; HCF proliferation) | EC50 ([3]; Homo sapiens, Cardiac fibroblast, HCF, 24 h treatment, read-out: Effective conc. (BrdU), EC50 by BrdU assay) | FAP expression (qPCR) [4] | MMP2 expression (qPCR) [4] | HCF migration [5] | Mean of treatment, hsa-miR-28-3p-002446 ([6]; cT normalized to column mean) | Mean of treatment, hsa-miR-342-3p-002260 ([6]; cT normalized to column mean) | Difference / ΔCT, hsa-miR-28-3p-002446 [6, 10] | Difference / ΔCT, hsa-miR-342-3p-002260 [6, 10] | anti-proliferative effect after inhibition of hsa-miR-132-3p [7] | anti-proliferative effect after overexpression of hsa-miR-125a-5p [7] | deregulation of fibrosis panel genes / pathways [8] | downregulation of high- to medium-expressed collagen isoforms [9] | expression of FN1, PTN and BGN [9] | differentially expressed genes (DEGs) vs DMSO control ([9]; RNA sequencing) | expression of collagen isoforms ([9]; top 20 expressed isoforms) |
| --- | --- | --- | --- | --- | --- | --- | --- | --- | --- | --- | --- | --- | --- | --- | --- | --- | --- | --- | --- |
| COc1cccc2c1C(=O)c1c(O)c3c(c(O)c1C2=O)C[C@@](O)(C(=O)CO)C[C@@H]3O[C@H]1C[C@H](N)[C@H](O)[C@H](C)O1 [doxorubicin] | increased LDH release | Caspase-3/7 activation | – | – | – | – | – | – | – | – | – | – | – | – | – | – | – | – | – |
| COC(=O)C[C@](O)(CCCC(C)(C)O)C(=O)O[C@@H]1C(OC)=C[C@]23CCCN2CCc2cc4c(cc2[C@H]13)OCO4 [lyco-s, homoharringtonine] | – | – | showed inhibitory activity | over 100 fold | 34 nM | significant down-regulation | significant down-regulation | repressed migration only after several hours | -2.759 | -3.581 | 0.9679 | 1.208 | protected | partially protected against the anti-proliferative effect | repressed genes related to endothelial mesenchymal transition (EMT), ECM homeostasis as well as collagen biosynthesis | approx. 90% | significantly downregulated | over 4000 | approx. tenfold |
